Source: patent US4200650A, “2-Amino-cyclopent-1-ene-1-thiocarboxylic acid-disulfides to treat noradrenergic malfunctions” (Richter Gedeon Vegyeszeti Gyar Rt., priority 1976, dated 1980)

What was measured:
Type in all cases: in vivo, male Wistar rats
[1] = system: dopamine-β-hydroxylase; assay: Determination of the noradrenaline content of spleen; settings: ± standard error
Experimental: (§1) The dopamine-β-hydroxylase inhibiting effects of the new compounds according to the invention were examined by the following tests:
(§2) The tests were performed on male Wistar rats weighing 150 to 200 g. The dopamine-β-hydroxylase inhibiting effects of the compounds were evaluated by determining the change of noradrenaline, dopamine and adrenaline levels of the cerebrum, heart, spleen and adrenal gland. The serotonine and 5-hydroxy-indolylacetic acid levels of the cerebrum were also determined. The measurements were performed as follows:
(§3) The animals were decapitated, the cerebrum, heart, spleen and adrenal gland were removed quickly, and the organs were frozen by placing them onto a metal sheet cooled with dry ice. The frozen organs were stored for maximum one night at -20° C.
(§4) Determination of the noradrenaline content of heart and spleen
(§5) The organs were weighed in frozen state and then homogenized in 5.0 ml of 0.4 n perchloric acid containing 0.05% of EDTA-Naa and 0.1% of Na2 S2 O5. The homogenized mixtures were centrifuged as described above for the treatment of adrenal gland, the supernatants were decanted, and the pH was adjusted to 8.0±0.1 with a 0.1 molar tris buffer containing 20 g/l of NaOH and 25 g/l of EDTA-Na2. 100 mg of prepared Al2 O3 (Anton et al.: J. Pharm. Ther. 138, 360/1962/) were added to the samples, and the mixtures were shaken mechanically for 20 minutes. Thereafter Al2 O3 was washed with 2×10 ml of distilled water, and noradrenaline was eluted with 1.0 ml of 0.05 n perchloric acid. 0.5 ml samples of the eluate were applied for the determination of noradrenaline. Noradrenaline was determined according to the method of Shellenberger et al. (Anal. Biochem. 39, 356/1971/), with the following modifications of the basic procedure: 0.5 ml of 0.1 molar Na-K-phosphate buffer, containing 9 g/l of EDTA-Na2, were added to 0.5 ml of the eluate, and the catecholamines (noradrenaline in the examination of heart and spleen and noradrenaline and dopamine in the examination of the cerebrum) were oxidized with 0.1 ml of a 0.1 n iodine solution in 5% potassium iodide. After exactly 2 minutes oxidation was stopped by adding 0.25 ml of a 2.5% sodium sulfite solution in 4.4 n aqueous sodium hydroxide to the mixture. 2 minutes after the introduction of the alkaline sulfite solution 0.2 ml of concentrated acetic acid were added to the samples, upon which the pH decreased to 4.4 to 4.5 Thereafter the samples were placed for 5 minutes into a drying oven heated to 100° C., and then the samples were cooled with ice water. The fluorescency of noradrenaline was measured with an OPTON spectrophotometer at wavelengths of 380 nm (excitation) and 490 nm (emission).
(§6) In the tests disulfiram, 2,2-dipyridyl, bis(1-methyl-4-homopiperazinyl-thriocaronyl)-disulfide, sodium diethyldithiocarbamate and N-phenyl-N'-(2-thiazolyl)-thiourea were applied as reference substances. The values indicated in Table 1 are the percentages in relation to the amine levels of the controls measured in the same tests (± standard error). The statistical calculations were performed on a TPA/i type computer, using Student's t test.

[2] = system: dopamine-β-hydroxylase; assay: Determination of the noradrenaline content of heart; settings: ± standard error
Experimental: as §1, §2, §3, §4, §5, §6

[3] = system: dopamine-β-hydroxylase; assay: Determination of the adrenaline content of adrenal gland; settings: ± standard error
Experimental: as §1, §2, §3
Determination of the adrenaline content of adrenal gland
The adrenal glands were freed from fat and homogenized in 3.0 ml of ice-cold 0.4 n perchloric acid. The homogenized mixtures were centrifuged for 10 minutes at 0° C. with a speed of 3200 r.p.m. using a Janetzky K-70 type centrifuge. 0.05 ml samples were taken from the supernatant, and the adrenaline level was determined directly by the method of Laverty et al. (Anal. Biochem. 22, 269/1968/).
as §6

[4] = system: dopamine-β-hydroxylase; assay: Determination of noradrenaline and dopamine levels of brain (dopamine-β-hydroxylase inhibiting effect)
Experimental: as §1, §2, §3
Determination of the noradrenaline, dopamine, serotonine and 5-hydroxy-indolylacetic acid contents of brain
The brains were homogenized in 10 parts by volume of 0.4 n perchloric acid. The homogenized mixture was stored at -20° C. overnight, thereafter it was thawed and centrifuged as described above. A sample of the homogenized mixture corresponding to 0.5 g of brain was removed, the pH of the sample was adjusted to 8.0±0.1 with 0.1 molar tris-buffer of the above composition, and the sample was processed as described above for the determination of the noradrenaline content of heart and spleen, with the difference that 1.5 ml of 0.05 n perchloric acid were applied as eluting agent. 0.5 ml of the eluate were applied to determine the noradrenaline and dopamine contents. The measurement was performed as described above, with the difference that samples of 0.5 ml were applied for the recording of the fluorescency of noradrenaline. The residua was placed for 50 minutes into a drying oven heated to 100° C., thereafter the sample was cooled with ice water, and the fluorescency of dopamine was recorded at wavelengths of 325 nm (excitation) and 380 nm (emission).
In a further test series the serotonine and 5-hydroxy-indolylacetic acid contents were also determined, beside the determination of the noradrenaline and dopamine content, from the same sample. In this instance the brains were homogenized in 10 ml of 75% ethanol, 0.2 ml of EDTA-Na2 and 5% of ascorbic acid were added to the homogenized mixtures, and the homogenized mixtures were maintained at -20° C. overnight. The mixtures were centrifuged as described above, and 5.0 ml samples of the supernatant were removed. The samples were diluted with equal volumes of distilled water, and poured onto ion exchange columns of 0.5×1.5 cm dimensions, filled with buffered Amberlite CG-30 (200 to 400 mesh). The columns were washed with 5 ml of distilled water followed by 1.0 ml of 0.2 n hydrochloric acid, and the first effluent and the aqueous wash were collected for the determination of 5-hydroxy-indolylacetic acid. Elution was continued with further 1.2 ml of 0.2 n hydrochloric acid in order to remove noradrenaline, dopamine and serotonine. Samples of 0.3 ml were used for the determinations.
Noradrenaline and dopamine were determined by the method of Shellenberger, modified as described above, whereas serotonine was determined by the method of Curzon et al. (Brit. J. Pharmacol. 39, 653/1970/). The basic method was modified as follows: A 0.5% solution of ortho-phthal(di)aldehyde in absolute ethanol was diluted with 10 n hydrochloric acid to 50-fold of its original volume, and 0.6 ml of the resulting 0.01% ortho-phthal(di)aldehyde solution were added immediately to 0.5 ml of the serotonine-containing sample. The sample was placed into a hot water bath for 10 minutes, thereafter cooled with tap water, and the fluorescency was recorded at wavelengths of 360 nm (excitation) and 490 nm (emission).
In the tests disulfiram, 2,2-dipyridyl, bis(1-methyl-4-homopiperazinyl-thriocaronyl)-disulfide, sodium diethyldithiocarbamate and N-phenyl-N'-(2-thiazolyl)-thiourea were applied as reference substances. […]

[5] = i.p., 100 mg/kg, 4 hours, ± standard error
[6] = i.p., 200 mg/kg, 4 hours, ± standard error
[7] = i.p., 200 mg/kg, 8 hours, ± standard error
[8] = i.p., 50 mg/kg, 4 hours, ± standard error
[9] = p.o., 500 mg/kg, 4 hours, ± standard error
[10] = p.o., 500 mg/kg, 8 hours, ± standard error
[11] = i.p., 400 mg/kg, time not given

Structure (SMILES) | Spleen NA (noradrenaline) level, percentages in relation to the controls ([1]; i.p., 200 mg/kg, 4 hours) [%] | Spleen NA (noradrenaline) level, percentages in relation to the controls ([1]; i.p., 200 mg/kg, 8 hours) [%] | Heart NA (noradrenaline) level, percentages in relation to the controls ([2]; i.p., 100 mg/kg, 4 hours) [%] | Heart NA (noradrenaline) level, percentages in relation to the controls ([2]; i.p., 200 mg/kg, 4 hours) [%] | Heart NA (noradrenaline) level, percentages in relation to the controls ([2]; i.p., 200 mg/kg, 8 hours) [%] | Adrenal gland AD (adrenaline) level, percentages in relation to the controls ([3]; i.p., 100 mg/kg, 4 hours) [%] | Adrenal gland AD (adrenaline) level, percentages in relation to the controls ([3]; i.p., 200 mg/kg, 4 hours) [%] | Adrenal gland AD (adrenaline) level, percentages in relation to the controls ([3]; i.p., 200 mg/kg, 8 hours) [%] | Brain DA (dopamine) level, percentages in relation to the controls [4, 5] [%] | Brain NA (noradrenaline) level, percentages in relation to the controls [4, 5] [%] | Brain DA (dopamine) level, percentages in relation to the controls [4, 6] [%] | Brain NA (noradrenaline) level, percentages in relation to the controls [4, 6] [%] | Brain DA (dopamine) level, percentages in relation to the controls [4, 7] [%] | Brain NA (noradrenaline) level, percentages in relation to the controls [4, 7] [%] | Heart NA (noradrenaline) level, percentages in relation to the controls ([2]; p.o., 500 mg/kg, 4 hours) [%] | Adrenal gland AD (adrenaline) level, percentages in relation to the controls ([3]; p.o., 500 mg/kg, 4 hours) [%] | Brain DA (dopamine) level, percentages in relation to the controls [4, 9] [%] | Brain NA (noradrenaline) level, percentages in relation to the controls [4, 9] [%] | further results
NC1=C(C(=S)SSC(=S)C2=C(N)CCC2)CCC1 [Compound M-1] | 92.6±12.4 | 91.2±12.6 | 86.5±3.7 | 82.5±5.4 | 83.2±9.5 | 87.2±6.7 | 70.9±5.8 | 60.2±3.2 | 121.2±5.8 | 69.5±12.1 | 124.5±1.9 | 56.7±5.9 | 109.0±5.9 | 56.5±6.3 |  |  |  |  | 
CCCCNC1=C(C([O-])=S)CCC1.CCCCNC1=C(C([O-])=S)CCC1.[Zn+2] [Compound M-3, 2-(N-butyl)-amino-cyclopent-1-ene-thiocarboxylic acid-disulfide(zinc salt)] |  |  | 91.5±8.1 |  |  | 60.5±3.6 |  |  | 121.3±6.1 | 73.5±3.2 |  |  |  |  | 108.8±3.2 | 100.3±8.3 | 99.2±5.0 | 98.8±2.5 | Heart NA (noradrenaline) level, percentages in relation to the controls ([2]; i.p., 50 mg/kg, 4 hours): 84.5±4.1%; Adrenal gland AD (adrenaline) level, percentages in relation to the controls ([3]; i.p., 50 mg/kg, 4 hours): 66.3±5.5%; Brain DA (dopamine) level, percentages in relation to the controls [4, 8]: 112.2±12.0%; Brain NA (noradrenaline) level, percentages in relation to the controls [4, 8]: 85.0±7.1%
COCCNC1=C(C(=S)SSC(=S)C2=C(NCCOC)CCC2)CCC1 [Compound M-4, 2-(N-methoxyethyl)-amino-cyclopent-1-ene-thiocarboxylic acid disulfide] | 69.9±16.9 | 61.9±9.9 | 91.8±5.9 | 91.7±9.2 | 75.7±3.7 | 77.5±6.3 | 96.3±6.7 | 97.0±7.9 | 131.5±8.9 | 41.9±2.7 | 134.6±4.0 | 39.6±4.9 | 120.6±5.8 | 28.5±1.4 | 86.3±10.1 | 96.3±6.0 | 114.5±2.4 | 73.6±2.8 | Spleen NA (noradrenaline) level, percentages in relation to the controls ([1]; i.p., 100 mg/kg, 4 hours): 81.4±10.8%; Spleen NA (noradrenaline) level, percentages in relation to the controls ([1]; p.o., 500 mg/kg, 4 hours): 103.1±18.9%; Spleen NA (noradrenaline) level, percentages in relation to the controls ([1]; p.o., 500 mg/kg, 8 hours): 101.0±14.3%; Heart NA (noradrenaline) level, percentages in relation to the controls ([2]; p.o., 500 mg/kg, 8 hours): 74.0±8.4%; Adrenal gland AD (adrenaline) level, percentages in relation to the controls ([3]; p.o., 500 mg/kg, 8 hours): 88.1±5.1%; Brain DA (dopamine) level, percentages in relation to the controls [4, 10]: 111.0±4.0%; Brain NA (noradrenaline) level, percentages in relation to the controls [4, 10]: 51.2±2.8%
S=C(SSC(=S)C1=C(NC2CCCCC2)CCC1)C1=C(NC2CCCCC2)CCC1 [Compound M-5, 2-(N-cyclohexyl)-amino-cyclopent-1-ene-thiocarboxylic acid disulfide] | 83.2±8.9 | 68.7±6.7 |  | 94.7±6.8 | 89.5±3.0 |  | 109.0±2.3 | 105.6±3.3 |  |  | 124.2±4.0 | 64.6±1.8 | 116.2±3.3 | 76.9±2.2 |  |  |  |  | 
CCN(CC)C(=S)[S-].[Na+] [DDC-Na, sodium diethyldithiocarbamate, reference compound] |  |  |  |  |  |  |  |  |  |  |  |  |  |  |  |  |  |  | Brain DA (dopamine) level, percentages in relation to the controls [4, 11]: 120%; Brain NA (noradrenaline) level, percentages in relation to the controls [4, 11]: 64.1%
